Patent publication US10213415B2, “Compounds as opioid receptor modulators” (JANSSEN PHARMACEUTICA NV, priority 2004, dated 2019)
“And” between values parts separate entries of the source, which are not always exact repeats. Equal values may be shown once. Read-outs that look alike come from different tables or passages of the source.

Experiments:
delta opioid receptor = molecular target: T1, delta opioid receptor (Rattus norvegicus, UniProt P33533); experiment: Rat Brain Delta Opioid Receptor Binding Assay ([3H]DPDPE); settings: rat forebrain membranes, margin of error 10-20%, read-out: r Ki δ
T1 construct: from tissue; host or cells: forebrain of male Wistar rats
T1 sequence (P33533 whole entry): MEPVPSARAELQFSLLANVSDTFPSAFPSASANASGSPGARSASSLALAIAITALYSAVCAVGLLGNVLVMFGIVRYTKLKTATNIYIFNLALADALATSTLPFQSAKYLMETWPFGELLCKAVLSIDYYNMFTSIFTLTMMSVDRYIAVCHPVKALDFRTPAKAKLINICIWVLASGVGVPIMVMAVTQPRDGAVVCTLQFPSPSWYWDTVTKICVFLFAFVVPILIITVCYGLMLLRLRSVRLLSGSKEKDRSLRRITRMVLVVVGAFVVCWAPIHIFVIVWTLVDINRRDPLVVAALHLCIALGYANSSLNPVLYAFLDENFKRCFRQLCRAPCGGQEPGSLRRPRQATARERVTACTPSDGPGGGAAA
How it was run: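 Rat (male Wistar) forebrain membranes in 50 mM Tris-HCl pH 7.4 with 5 mM MgCl2, incubated with ~4 nM [3H]DPDPE for 2.5 h at 25 °C. Bound ligand collected by filtration and scintillation counting. Single-concentration data given as % inhibition of specific binding; concentration series fitted to Ki.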

[1] = tested on: novel environment-stressed mice; experiment: In Vivo Assay-Stress-Induced Fecal Output (Fecal Output for 1 hr); design: species or system mouse; settings: for response vs control in vivo at 10 mg/kg / response vs control in vivo at 30 mg/kg: Mus musculus, po, 1 h; for response vs control in vivo at 10 mg/kg / Fecal Output (# pellets) cpd / response vs control in vivo at 30 mg/kg: 1 hr; for Fecal Output (# pellets) cpd: novel environment-stressed mice; for # of pellets, Compound (m) 3.0 / Fecal pellet output, Compound (% control) 3.0 / Fecal pellet output, Compound (% NES) 3.0: dose 3.0, oral; for # of pellets, Compound (m) 10.0 / Fecal pellet output, Compound (% control) 10.0 / Fecal pellet output, Compound (% NES) 10.0: dose 10.0, oral; for # of pellets, Compound (m) 30.0 / Fecal pellet output, Compound (% control) 30.0: dose 30.0, oral; for Fecal pellet output, Compound (% NES) 30: dose 30, oral
How it was run: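 Adult male Crl:CD-1(ICR) mice (˜30-35 g; at least 10 per dose group) were split into acclimated non-stressed controls, held individually for 16-18 hr in wire-mesh-bottom cages, and non-acclimated stressed groups. Mice were dosed intragastrically with vehicle or test compound in 0.5% methylcellulose, housed individually in novel cages over absorbent cardboard, and fecal pellets per mouse were counted hourly.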

[2] = molecular target: T2, delta opioid receptor (CHO-hδ cell membranes) (Homo sapiens, UniProt P41143); experiment: Delta Opioid Receptor Functional Assay: [35S]GTPγS Binding in CHO-hδ Cell Membranes, Version 1; assay type: biochemical; settings: read-out: DOR GTP-binding Assay_v1 EC50
T2 construct: purchased Receptor Biology, Inc. (Baltimore, Md.); host or cells: CHO cells (recombinant expression)
T2 sequence (P41143 whole entry): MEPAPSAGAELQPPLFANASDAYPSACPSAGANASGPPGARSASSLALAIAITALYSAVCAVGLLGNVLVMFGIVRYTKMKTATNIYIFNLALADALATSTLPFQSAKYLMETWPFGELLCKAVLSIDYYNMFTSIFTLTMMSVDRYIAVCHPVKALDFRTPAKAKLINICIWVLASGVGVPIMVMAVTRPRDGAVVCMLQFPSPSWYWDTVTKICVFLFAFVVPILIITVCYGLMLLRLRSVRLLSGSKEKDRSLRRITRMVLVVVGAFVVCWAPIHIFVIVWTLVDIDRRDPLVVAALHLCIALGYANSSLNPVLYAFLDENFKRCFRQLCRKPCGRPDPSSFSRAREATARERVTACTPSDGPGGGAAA
How it was run: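 CHO-hδ membranes (10 μg/ml) coupled to SPA beads, incubated with 0.5 nM [35S]GTPγS and 50 μM GDP in HEPES pH 7.6, MgCl2, NaCl, DTT, EDTA buffer with increasing agonist. Nonspecific binding with 10 μM unlabeled GTPγS; response as % of basal, EC50 by curve fit.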

[3] = 10 mg/kg oral, relative to novel environment stress (NES) vehicle group, read-out: Fecal Output cpd % NES
[4] = 30 mg/kg oral, relative to acclimated control, read-out: Fecal Output cpd % control
[5] = 30 mg/kg oral, relative to novel environment stress (NES) vehicle group, read-out: Fecal Output cpd % NES
[6] = NES mice, vs acclimated control
[7] = 10 mg/kg oral, relative to acclimated control, read-out: Fecal Output cpd % control

Row | Structure (SMILES) | Ki (delta opioid receptor) | response vs control in vivo at 10 mg/kg [1, 3] | EC50 [2] | Fecal Output (# pellets) cpd ([1]; 30 mg/kg oral) | response vs control in vivo at 30 mg/kg [1, 4] | response vs control in vivo at 30 mg/kg [1, 5] | # of pellets, Compound (m) 3.0 ([1]; NES mice, fecal output 1 hr) | Fecal pellet output, Compound (% control) 3.0 [1, 6] | Fecal pellet output, Compound (% NES) 3.0 ([1]; vs vehicle NES group) | # of pellets, Compound (m) 10.0 ([1]; NES mice, fecal output 1 hr) | Fecal pellet output, Compound (% control) 10.0 [1, 6] | Fecal pellet output, Compound (% NES) 10.0 ([1]; vs vehicle NES group) | # of pellets, Compound (m) 30.0 ([1]; NES mice, fecal output 1 hr) | Fecal pellet output, Compound (% control) 30.0 [1, 6] | Fecal pellet output, Compound (% NES) 30 ([1]; vs vehicle NES group) | Fecal Output (# pellets) cpd ([1]; 10 mg/kg oral) | response vs control in vivo at 10 mg/kg [1, 7] | further results
1 | Cc1cc(O)cc(C)c1C[C@H](N)C(=O)N(C)Cc1nc(-c2ccccc2)c[nH]1 [Cpd 199] | 26.3 nM | 86.7% | 217 nM | – | – | – | – | – | – | – | – | – | – | – | – | – | – | –
2 | Cc1cc(C(N)=O)cc(C)c1C[C@H](N)C(=O)N(Cc1ccccc1)[C@@H](C)c1nc(-c2ccccc2)c[nH]1 [Cpd 114] | 12 nM | – | 35 nM | 7.8 pellets | 108% | 75.7% | 9.6 | 282.4 % control | 96 % NES | 7.7 | 226.5 % control | 77 % NES | 5.4 | 159 % control | 54 % NES | – | – | –
3 | Cc1cc(O)cc(C)c1C[C@H](N)C(=O)N(Cc1nc(-c2ccccc2)c[nH]1)C(C)C [Cpd 194] | 14.8 nM | 94.4% | 189 nM | – | – | – | – | – | – | – | – | – | – | – | – | 11.8 pellets | 218% | –
4 | CCN(C(=O)[C@@H](N)Cc1c(C)cc(O)cc1C)[C@@H](C)c1nc(-c2ccccc2)c[nH]1 [Cpd 216] | 1.14 nM | 47.6% | 16 nM | – | – | – | – | – | – | – | – | – | – | – | – | 4.9 pellets | 136% | –
5 | Cc1cc(O)cc(C)c1C[C@H](N)C(=O)N(C)[C@@H](C)c1nc(Cc2ccccc2)c[nH]1 [Cpd 205] | 4.44 nM | – | 32 nM | 2.3 pellets | 70.7% | 24.6% | – | – | – | – | – | – | – | – | – | – | – | –
6 | Cc1cc(O)cc(C)c1C[C@H](N)C(=O)N(C)[C@@H](C)c1nc(-c2ccccc2)c[nH]1 [Cpd 207] | 5.3 nM and 5.37 nM and 14.7 nM | – | 8.65 nM and 12 nM | – | – | 49.6% | 12 and 7.3 | 228.8 % control and 202.8 % control | 104.4 % NES and 112.3 % NES | 4.9 and 6.7 and 5.5 and 4.8 | 94.2 % control and 139.6 % control and 161.8 % control and 133.3 % control | 42.98 % NES and 77.91 % NES and 50.93 % NES and 73.85 % NES | 3.5 and 3.4 | 103 % control and 94 % control | 32.41 % NES and 52.31 % NES | – | – | # of pellets, Compound (m) 0.3 ([1]; dose 0.3, oral, NES mice, fecal output 1 hr): 11.4; Fecal pellet output, Compound (% control) 0.3 ([1]; dose 0.3, oral, NES mice, vs acclimated control): 219.2 % control; Fecal pellet output, Compound (% NES) 0.3 ([1]; dose 0.3, oral, vs vehicle NES group): 100 % NES; # of pellets, Compound (m) 0.5 ([1]; dose 0.5, oral, NES mice, fecal output 1 hr): 9.4; Fecal pellet output, Compound (% control) 0.5 ([1]; dose 0.5, oral, NES mice, vs acclimated control): 195.8 % control; Fecal pellet output, Compound (% NES) 0.5 ([1]; dose 0.5, oral, vs vehicle NES group): 109 % NES; # of pellets, Compound (m) 5.0 ([1]; dose 5.0, oral, NES mice, fecal output 1 hr): 8.6; Fecal pellet output, Compound (% control) 5.0 ([1]; dose 5.0, oral, NES mice, vs acclimated control): 179.2 % control; Fecal pellet output, Compound (% NES) 5.0 ([1]; dose 5.0, oral, vs vehicle NES group): 100 % NES; # of pellets, Compound (m) 6.0 ([1]; dose 6.0, oral, NES mice, fecal output 1 hr): 7.5; Fecal pellet output, Compound (% control) 6.0 ([1]; dose 6.0, oral, NES mice, vs acclimated control): 220.6 % control; Fecal pellet output, Compound (% NES) 6.0 ([1]; dose 6.0, oral, vs vehicle NES group): 69.44 % NES
